Experimental data taken from patent US20160346249A1 (priority 2012, published 2016).
Where “and” joins values, the source holds several entries; their conditions need not be identical. Identical values can stand only once.

Experiment: Single rising oral dose (10-150 mg IR) safety, tolerance and pharmacokinetics in healthy male volunteers
Assay type: in vivo, human
Source text: Fifty (50) healthy male adult volunteers, between the ages of 19 and 43 years (mean±SD: 28±6 years) were enrolled in the study and randomized to the […] different treatments. […] The subjects were divided into panels of 10 subjects/dose group. Seven subjects in each group received the test drug, while three received an identical-looking placebo. […] The five treatments are outlined below:
The subjects were admitted to the clinic the night before dose administration and fasted from approximately 10 hour before to 4 hour after ingestion of the study capsules. Treatments were administered with 240 mL of mineral water between 08:00 and 09:00 hours. […] The assay calibration range was 5 to 2,000 ng/mL.
The values of Cmax and Tmax were the observed value for each subject. The terminal elimination rate constant λz was derived from the log-linear disposition phase of the concentration-time curve using linear least-squares regression for which the program determined the appropriate number of terminal points to calculate λz. At least three terminal plasma concentrations were used for estimating λz. The t1/2 (HL_Lambda_z) was calculated as ln 2/λz. AUC0-t and AUMC0-t were determined using the linear trapezoidal rule for each increasing concentration and the log-trapezoidal rule for descending concentrations. The AUC values from the last quantifiable time point to infinity was calculated as Ct/λz. This value was added to AUC0-t to obtain AUC0-∞. […] Oral clearance was calculated as Dose/AUC0-∞. The 90% confidence intervals were calculated for all of the variables.
SAS, version 8.2, was used for the analysis.

[1] = 10 mg, individual subject, listed as DOV 21,947
[2] = 25 mg, individual subject, listed as DOV 21,947
[3] = 50 mg, individual subject, listed as DOV 21,947
[4] = 100 mg, individual subject, listed as DOV 21,947
[5] = 150 mg, individual subject, listed as DOV 21,947

SMILES: Clc1ccc([C@]23CNC[C@H]2C3)cc1Cl [amitifadine, (+)-1-(3,4-dichlorophenyl)-3-azabicyclo[3.1.0]hexane]
- λ2 (10 mg, Geometric Mean): 0.204 h⁻¹
- AUC0-∞ (10 mg, Maximum): 551 ng·h/mL
- AUC(0-t) (10 mg, Maximum): 492 ng·h/mL
- MRT0-∞ (10 mg, Maximum): 6.09 h
- t1/2 (10 mg, Maximum): 3.90 h
- λ2 (10 mg, Maximum): 0.233 h⁻¹
- λz (10 mg, Mean (n = 7)): 0.205 h⁻¹
- λ2 (10 mg, Median): 0.200 h⁻¹
- AUC0-∞ (10 mg, Minimum): 257 ng·h/mL
- AUC(0-t) (10 mg, Minimum): 227 ng·h/mL
- MRT0-∞ (10 mg, Minimum): 4.72 h
- t1/2 (10 mg, Minimum): 2.98 h
- λ2 (10 mg, Minimum): 0.178 h⁻¹
- MRT0-∞ [1]: 5.47 h and 4.72 h and 6.09 h and 4.84 h
- t1/2 [1]: 3.63 h and 3.90 h and 3.09 h and 2.98 h and 3.79 h and 3.08 h
- λ2 [1]: 0.200 hr^−1 and 0.191 hr^−1 and 0.178 hr^−1 and 0.225 hr^−1 (2×) and 0.233 hr^−1 and 0.183 hr^−1
- λ2 (25 mg, Geometric Mean): 0.234 h⁻¹
- AUC0-∞ (25 mg, Maximum): 2350 ng·h/mL
- AUC(0-t) (25 mg, Maximum): 2220 ng·h/mL
- MRT0-∞ (25 mg, Maximum): 6.46 h
- t1/2 (25 mg, Maximum): 5.25 h
- λ2 (25 mg, Maximum): 0.493 h⁻¹
- λz (25 mg, Mean (n = 7)): 0.251 h⁻¹
- AUC(0-t) (25 mg, Mean (n = 7), listed as DOV 21,947): 1380 ng·h/mL
- λ2 (25 mg, Median): 0.231 h⁻¹
- AUC0-∞ (25 mg, Minimum): 1080 ng·h/mL
- AUC(0-t) (25 mg, Minimum): 995 ng·h/mL
- MRT0-∞ (25 mg, Minimum): 4.26 h
- t1/2 (25 mg, Minimum): 1.41 h
- λ2 (25 mg, Minimum): 0.132 h⁻¹
- MRT0-∞ [2]: 4.26 h and 6.46 h and 4.98 h and 4.29 h and 4.39 h
- λ2 [2]: 0.222 hr^−1 and 0.231 hr^−1 (2×) and 0.132 hr^−1 and 0.191 hr^−1 and 0.258 hr^−1 and 0.493 hr^−1
- λ2 (50 mg, Geometric Mean): 0.190 h⁻¹
- AUC0-∞ (50 mg, Maximum): 3270 ng·h/mL
- AUC(0-t) (50 mg, Maximum): 3220 ng·h/mL
- MRT0-∞ (50 mg, Maximum): 5.66 h
- t1/2 (50 mg, Maximum): 4.39 h
- λ2 (50 mg, Maximum): 0.245 h⁻¹
- λz (50 mg, Mean (n = 7)): 0.192 h⁻¹
- λ2 (50 mg, Median): 0.191 h⁻¹
- AUC0-∞ (50 mg, Minimum): 1690 ng·h/mL
- AUC(0-t) (50 mg, Minimum): 1530 ng·h/mL
- MRT0-∞ (50 mg, Minimum): 4.38 h
- t1/2 (50 mg, Minimum): 2.62 h
- λ2 (50 mg, Minimum): 0.158 h⁻¹
- MRT0-∞ [3]: 4.38 h and 5.43 h and 5.22 h and 5.60 h and 5.66 h
- λ2 [3]: 0.213 h⁻¹ and 0.245 h⁻¹ and 0.199 h⁻¹ and 0.158 h⁻¹ and 0.191 h⁻¹ and 0.167 h⁻¹ and 0.170 h⁻¹
- λ2 (100 mg, Geometric Mean): 0.167 h⁻¹
- AUC0-∞ (100 mg, Maximum): 5960 ng·h/mL
- AUC(0-t) (100 mg, Maximum): 5900 ng·h/mL
- MRT0-∞ (100 mg, Maximum): 7.03 h
- t1/2 (100 mg, Maximum): 4.35 h
- λ2 (100 mg, Maximum): 0.177 h⁻¹
- λz (100 mg, Mean (n = 7)): 0.167 h⁻¹
- λ2 (100 mg, Median): 0.164 h⁻¹
- AUC0-∞ (100 mg, Minimum): 4030 ng·h/mL
- AUC(0-t) (100 mg, Minimum): 3960 ng·h/mL
- MRT0-∞ (100 mg, Minimum): 4.85 h
- t1/2 (100 mg, Minimum): 3.92 h
- λ2 (100 mg, Minimum): 0.159 h⁻¹
- MRT0-∞ [4]: 7.03 h and 5.71 h and 5.63 h and 4.85 h
- λ2 [4]: 0.176 hr^−1 and 0.162 hr^−1 and 0.173 hr^−1 and 0.159 hr^−1 (2×) and 0.164 hr^−1 and 0.177 hr^−1
- λ2 (150 mg, Geometric Mean): 0.191 h⁻¹
- AUC0-∞ (150 mg, Maximum): 11100 ng·h/mL
- AUC(0-t) (150 mg, Maximum): 10900 ng·h/mL
- MRT0-∞ (150 mg, Maximum): 7.14 h
- t1/2 (150 mg, Maximum): 4.87 h
- λ2 (150 mg, Maximum): 0.288 h⁻¹
- λz (150 mg, Mean (n = 7)): 0.195 h⁻¹
- t1/2 (150 mg, Mean (n = 7), listed as DOV 21,947): 3.91 h
- λ2 (150 mg, Median): 0.189 h⁻¹
- AUC0-∞ (150 mg, Minimum): 6590 ng·h/mL
- AUC(0-t) (150 mg, Minimum): 6390 ng·h/mL
- MRT0-∞ (150 mg, Minimum): 4.66 h
- t1/2 (150 mg, Minimum): 2.41 h
- λ2 (150 mg, Minimum): 0.142 h⁻¹
- MRT0-∞ [5]: 7.03 h and 6.70 h and 4.66 h and 7.14 h
- λ2 [5]: 0.177 h⁻¹ and 0.142 h⁻¹ and 0.189 h⁻¹ and 0.288 h⁻¹ and 0.200 h⁻¹ and 0.159 h⁻¹ and 0.209 h⁻¹
- variability of Cmax and AUC (all doses): ≤ 30%
- MRT inf (human, plasma, oral, 10 mg, individual subject, read-out: MRT0-∞): 5.36 h
